The values that follow come from patent publication US20230257398A1, “PYRIMIDINE-BASED TRICYCLIC COMPOUND AND USE THEREOF” (Chia Tai Tianqing Pharmaceutical Group Co., Ltd., priority 2020, published 2023).

The target in the test is T1, sGC (Homo sapiens, UniProt Q02108+Q02153).
T1 construct: Preparation of LNCap Cells; endogenous in cells; host or cells: LNCaP cells (14th generation), no transfection described
T1 sequence (Q02153 1-619): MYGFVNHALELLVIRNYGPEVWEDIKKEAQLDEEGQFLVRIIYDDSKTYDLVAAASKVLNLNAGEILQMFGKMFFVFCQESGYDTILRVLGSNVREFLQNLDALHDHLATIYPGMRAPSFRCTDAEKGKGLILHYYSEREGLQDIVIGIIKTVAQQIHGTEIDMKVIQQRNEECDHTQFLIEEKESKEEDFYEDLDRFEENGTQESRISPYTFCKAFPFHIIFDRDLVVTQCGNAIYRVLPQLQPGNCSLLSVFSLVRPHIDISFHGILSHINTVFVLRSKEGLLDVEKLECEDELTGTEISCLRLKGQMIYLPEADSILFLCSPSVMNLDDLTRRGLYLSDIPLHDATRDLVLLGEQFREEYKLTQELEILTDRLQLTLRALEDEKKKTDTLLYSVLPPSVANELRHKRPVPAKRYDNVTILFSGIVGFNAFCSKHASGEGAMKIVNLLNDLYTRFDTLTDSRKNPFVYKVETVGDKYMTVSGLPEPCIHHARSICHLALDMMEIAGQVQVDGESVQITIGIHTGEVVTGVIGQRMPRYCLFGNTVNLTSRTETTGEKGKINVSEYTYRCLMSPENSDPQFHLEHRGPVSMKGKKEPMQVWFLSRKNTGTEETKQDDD
T1 sequence (Q02108 1-690): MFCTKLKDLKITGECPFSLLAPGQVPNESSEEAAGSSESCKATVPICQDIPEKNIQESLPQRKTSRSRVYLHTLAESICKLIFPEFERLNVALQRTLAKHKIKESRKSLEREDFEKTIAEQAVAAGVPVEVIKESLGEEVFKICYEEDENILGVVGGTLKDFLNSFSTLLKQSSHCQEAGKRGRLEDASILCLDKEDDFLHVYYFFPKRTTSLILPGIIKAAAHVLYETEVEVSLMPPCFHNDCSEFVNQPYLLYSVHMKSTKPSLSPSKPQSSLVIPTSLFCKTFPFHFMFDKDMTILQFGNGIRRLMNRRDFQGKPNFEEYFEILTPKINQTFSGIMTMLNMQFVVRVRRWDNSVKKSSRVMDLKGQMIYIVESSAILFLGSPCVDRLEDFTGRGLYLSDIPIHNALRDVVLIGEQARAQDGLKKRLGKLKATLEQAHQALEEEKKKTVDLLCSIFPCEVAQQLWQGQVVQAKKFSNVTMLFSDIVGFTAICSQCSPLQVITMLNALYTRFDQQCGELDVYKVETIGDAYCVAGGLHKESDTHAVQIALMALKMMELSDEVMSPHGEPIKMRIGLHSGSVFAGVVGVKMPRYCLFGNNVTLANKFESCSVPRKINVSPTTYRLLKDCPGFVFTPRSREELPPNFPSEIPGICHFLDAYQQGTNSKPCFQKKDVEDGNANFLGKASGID
The experiment in a line: lnCap cell-based cGMP expression assay (stimulating activity for sGC). The note with it: with DETA-NO, 37° C. 30 min, HTRF cGMP. On the procedure: I. lnCap Cell-Based cGMP Expression Assay
1) Preparation of Solutions
10% BSA (Bovine Serum Albumin)
10 g of BSA was dissolved in 100 mL of double distilled water (ddH2O) to give 10% BSA.
5 mM DETA (Diethylenetriamine)-NO
10 mg of DETA-NO was weighed out and dissolved in 12.2 mL of double distilled water (ddH2O) to give 5 mM DETA-NO, which was aliquoted and cryopreserved in a freezer at −20° C.
a) To 1 mL of a lysis buffer was added 50 μL of cGMP-D2 (D2-labeled cyclic guanosine monophosphate), and the mixture was well mixed.
b) To 1 mL of a lysis buffer was added 50 μL of anti-cGMP cryptate (Eu^3+ cryptate-labeled anti-cyclic guanosine monophosphate antibody), and the mixture was well mixed.
(1) The compounds were diluted to 5 mM with DMSO. 10 μL of each of the compounds was transferred to a shallow well plate for Echo.
(2) The compounds were gradiently diluted with Echo. Each of the compounds was diluted to obtain 10 concentration gradients, and 50 nL of each of the concentration gradients was added to a 384 microwell plate.
3) Preparation of LNCap Cells
(1) LNCap medium: RPMI1640+10% fetal bovine serum+1% […].
(2) Phosphate buffered saline, pancreatin and the medium used in the process of cell passaging were pre-heated in a water bath at 37° C.
(3) The cells (the 14th generation) were taken out of the 37° C., 5% CO2 incubator, and the old medium was pipetted off the culture flask.
(4) 5 mL of phosphate buffered saline was pipetted into the culture flask to rinse the cells, and then the liquid was discarded.
(5) 3 mL of pancreatin was pipetted into the culture flask. After the culture flask was shaken, the liquid was discarded, and the culture flask was placed in the incubator.
(6) After about 2 min the culture flask was taken out. […] The cell suspension was transferred to a 50 mL centrifuge tube.
(7) 0.7 mL of the cell suspension was pipetted into a counter cup and the cells were counted on a ViCell XR. The remaining cells were centrifuged at 1000 rpm for 5 min, and the supernatant was removed.
(8) The cells were washed by adding 10 mL of the washing buffer and centrifuged at 1000 rpm for 5 min, and the supernatant was removed.
(9) The assay buffer was added to adjust the cell concentration to 1.25×10^6/mL. The cells were added to the microwell plate at 8 μL/well.
4) Formulation and Addition of DETA-NO
(1) 10 μL of 5 mM DETA-NO was added to 1240 μL of the assay buffer and to 1657 μL of the assay buffer to give 40 μM DETA-NO and 30 μM DETA-NO, respectively.
(2) DETA-NO was transferred to the 384 microwell plate at 2 μL/well using Bravo.
(3) The mixtures were centrifuged at 1500 rpm for 5 min. The microwell plate was incubated at 37° C. for 30 min.
5) Preparation of cGMP Standard Curve
(1) 1 mM of the cGMP stock solution was diluted to 10 μM with the assay buffer. Then 4-fold gradient dilution was performed to obtain 11 concentration gradients.
(2) The cGMP dilutions were added to the microwell plate at 10 μL/well.
6) Addition of Detection Reagents and Plate Reading
(1) cGMP-D2 was transferred to the 384 microwell plate at 5 μL/well using Bravo. The mixtures were centrifuged at 1500 rpm for 1 min.
(2) The anti-cGMP cryptate was transferred to the 384 microwell plate at 5 μL/well using Bravo. The mixtures were centrifuged at 1500 rpm for 1 min.
(3) The plate was incubated at room temperature for 1 h.
(4) 665/615 was read using envision.
(1) cGMP standard curve: a standard curve was generated using Graphpad prism based on the cGMP concentrations and 665/615 ratios.
(2) Conversion of HTRF (homogeneous time-resolved fluorescence) ratios (665/615) to cGMP concentrations: in Graphpad prism, the HTRF ratios (665/615) were copied into the ratio column of the cGMP standard curve, and the “Log inhibitor vs response-variable slope” analysis was run with “interpolate” selected to convert the HTRF ratios (665/615) to cGMP concentrations. […]
Background: In TR-FRET formats the signal depends on donor and acceptor labels being close together.
As for `CC12CC(=O)Nc3nc(-c4nn(CCC(F)(F)C(F)(F)F)c5ncc(F)cc45)nc(c31)NC(=O)C2` [Compound 012], the “MEC: minimum effective concentration to stimulate cGMP production (three times greater than the basal value) in lnCap cells” value was determined as 118.6 nM.
The value for `O=C1Cn2c(=O)[nH]c3nc(-c4nn(Cc5ccccc5F)c5ncc(F)cc45)nc(c32)N1` [Compound 004] was 142.79 nM; that for `CC12CCNc3nc(-c4nn(Cc5c(F)cccc5F)c5ncc(F)cc45)nc(c31)NC(=O)C2` (stereo not drawn) [Compound 022] was 24.9 nM.
